Converted amounts (≈) assume the structure as drawn. Where two headings read alike, the source gives them in different places.
Legend:
[1] = system: Pseudomonas aeruginosa BMH No. 1; test: In vitro antibacterial spectrum by agar dilution method (pH 8.0); assay type: cell-based
[2] = system: Streptococcus faecalis ATCC 10541; test: as above; assay type: cell-based; conditions: Enterococcus faecalis
Escherichia coli KY 8334 = test: as above; assay type: cell-based; conditions: KY8334, Escherichia coli KY 8334 (resistant to Kanamycin and Tobramycin), read-out: Minimum Inhibitory Concentration (M.I.C.)
[3] = system: Proteus vulgaris ATCC 6897; test: as above; assay type: cell-based
[4] = system: Staphylococcus aureus KY 8957; test: as above; assay type: cell-based; conditions: KY8957, Staphylococcus aureus KY 8957 (resistant to Chloramphenicol, Streptomycin, Kanamycin, Paromomycin, Nebramycin, Tobramycin and Tetracycline), read-out: Minimum Inhibitory Concentration (M.I.C.)
Escherichia coli KY 8348 = test: as above; assay type: cell-based; conditions: KY8348, Escherichia coli KY 8348 (resistant to Streptomycin and Gentamicin), read-out: Minimum Inhibitory Concentration (M.I.C.)
[5] = system: Staphylococcus aureus KY 8950; test: as above; assay type: cell-based; conditions: KY8950, Staphylococcus aureus KY 8950 (resistant to Streptomycin, Tetracycline, Penicillin and sulfonamide), read-out: Minimum Inhibitory Concentration (M.I.C.)
[6] = system: Bacillus cereus ATCC 9634; test: as above; assay type: cell-based; conditions: ATCC9634, read-out: Minimum Inhibitory Concentration (M.I.C.)
[7] = system: Staphylococcus aureus KY 8942; test: as above; assay type: cell-based
[8] = system: Salmonella typhosa ATCC 9992; test: as above; assay type: cell-based; conditions: Salmonella enterica, pH 8, read-out: Minimum Inhibitory Concentration (M.I.C.)
[9] = system: Bacillus cereus var. mycoides ATCC 9463; test: microbe, parasite or virus in culture; assay type: cell-based; conditions: ATCC9463, pH 8, read-out: Minimum Inhibitory Concentration (M.I.C.)
[10] = system: Bacillus subtilis No. 10703; test: In vitro antibacterial spectrum by agar dilution method (pH 8.0); assay type: cell-based
Escherichia coli ATCC 26 = test: as above; assay type: cell-based
[11] = system: Gram-positive and Gram-negative bacteria; test: Antibacterial activity (summary of Table 4); assay type: cell-based; conditions: versus the said known antibiotics; from Table 4
Excerpt: (§1) The in vitro antibacterial spectra of the XK-88 antibiotics by agar dilution method (pH 8.0) is illustrated in the following Table 4: […]

[12] = system: Staphylococcus aureus ATCC 6538P; test: In vitro antibacterial spectrum by agar dilution method (pH 8.0); assay type: cell-based; conditions: ATCC6538P, read-out: Minimum Inhibitory Concentration (M.I.C.)
Escherichia coli = test: Antibacterial activity against resistant bacteria (summary of Table 4); assay type: cell-based; conditions: Escherichia coli normally resistant to various known antibiotics
Excerpt: as §1

Staphylococcus aureus = test: as above; assay type: cell-based; conditions: Staphylococcus aureus normally resistant to various known antibiotics
Excerpt: as §1

[13] = system: Shigella sonnei ATCC 9290; test: In vitro antibacterial spectrum by agar dilution method (pH 8.0); assay type: cell-based; conditions: ATCC9290, read-out: Minimum Inhibitory Concentration (M.I.C.)
Excerpt: (§2) The in vitro antibacterial spectra of the XK-88 antibiotics by agar dilution method (pH 8.0) is illustrated in the following Table 4:
(§3) (Minimum Inhibitory Concentration (μg/ml)
(§4) by agar dilution method (pH 8.0)

Escherichia coli KY 8310 = test: as above; assay type: cell-based; conditions: KY8310, Escherichia coli KY 8310 (resistant to Chloramphenicol, Streptomycin, Kanamycin, Gentamicin, Paromomycin, Nebramycin, Tobramycin, Spectinomycin and Tetracycline), read-out: Minimum Inhibitory Concentration (M.I.C.)
Excerpt: as §2, §3, §4

Escherichia coli KY 8314 = test: as above; assay type: cell-based; conditions: KY8314, Escherichia coli KY 8314 (resistant to Streptomycin), read-out: Minimum Inhibitory Concentration (M.I.C.)
Excerpt: as §2, §3, §4

Escherichia coli KY 8331 = test: as above; assay type: cell-based; conditions: KY8331, Escherichia coli KY 8331 (resistant to Kanamycin, Ribostamycin, Neomycin, Paromomycin, Lividomycin and Nebramycin), read-out: Minimum Inhibitory Concentration (M.I.C.)
Excerpt: as §2, §3, §4

[14] = system: Klebsiella pneumoniae ATCC 10031; test: as above; assay type: cell-based; conditions: ATCC10031, read-out: Minimum Inhibitory Concentration (M.I.C.)
[15] = system: Staphylococcus aureus KY 8953; test: as above; assay type: cell-based
[16] = system: Staphylococcus aureus KY 8956; test: as above; assay type: cell-based; conditions: KY8956, Staphylococcus aureus KY 8956 (resistant to Streptomycin, Paromomycin, Tetracycline, Kanamycin, Nebramycin, Tobramycin and Erythromycin), read-out: Minimum Inhibitory Concentration (M.I.C.)
Escherichia coli KY 8327 = test: as above; assay type: cell-based; conditions: KY8327, Escherichia coli KY 8327 (resistant to Kanamycin, Gentamicin, Nebramycin and Tobramycin), read-out: Minimum Inhibitory Concentration (M.I.C.)
Solubility = assay type: physicochemical; conditions: for solubility in organic solvents: acetone, ethyl acetate, ethyl ether, chloroform, etc.

SMILES | MIC (Escherichia coli KY 8334) [µg/mL] | MIC [4] [µg/mL] | MIC (Escherichia coli KY 8348) [µg/mL] | MIC [5] [µg/mL] | MIC [6] [µg/mL] | MIC [8] [µg/mL] | MIC [9] [µg/mL] | cross resistance with known antibiotics [11] | MIC [12] [µg/mL] | antibacterial activity (Escherichia coli) | antibacterial activity (Staphylococcus aureus) | MIC [13] [µg/mL] | MIC (Escherichia coli KY 8310) [µg/mL] | MIC (Escherichia coli KY 8314) [µg/mL] | MIC (Escherichia coli KY 8331) [µg/mL] | MIC [14] [µg/mL] | MIC [16] [µg/mL] | MIC (Escherichia coli KY 8327) [µg/mL] | solubility in organic solvents (Solubility) | solubility in methanol and ethanol (Solubility) | further results
NC1CC(N)C(OC2OC(CO)C(O)C(O)C2N)C(O)C1OC1OCC(O)C(O)C1N (centres unmarked) [XK-88-1] | 1.65 (≈ 3.63 µM) | 104 (≈ 229 µM) | 13.5 (≈ 29.7 µM) | 13.1 (≈ 28.8 µM) | 6.6 (≈ 14.5 µM) | 26.1 (≈ 57.4 µM) | 3.3 (≈ 7.26 µM) | complete cross resistance does not always occur | 6.6 (≈ 14.5 µM) | strong antibacterial activity | strong antibacterial activity | 52.1 (≈ 115 µM) | > 416 | 52.1 (≈ 115 µM) | > 416 | 13.1 (≈ 28.8 µM) | 208 (≈ 459 µM) | 13.1 (≈ 28.8 µM) | – | – | MIC ([1]; Pseudomonas aeruginosa, BMHNO.1, pH 8, read-out: Minimum Inhibitory Concentration (M.I.C.)): > 416 µg/mL; MIC ([2]; ATCC10541, pH 8, read-out: Minimum Inhibitory Concentration (M.I.C.)): > 416 µg/mL; MIC ([3]; Proteus vulgaris, ATCC6897, pH 8, read-out: Minimum Inhibitory Concentration (M.I.C.)): 416 µg/mL (≈ 916 µM); MIC ([7]; Staphylococcus aureus, KY8942, pH 8, read-out: Minimum Inhibitory Concentration (M.I.C.)): 52.1 µg/mL (≈ 115 µM); MIC ([10]; Bacillus subtilis, NO.10703, pH 8, read-out: Minimum Inhibitory Concentration (M.I.C.)): 52.1 µg/mL (≈ 115 µM); MIC (Escherichia coli ATCC 26; Escherichia coli, ATCC26, pH 8, read-out: Minimum Inhibitory Concentration (M.I.C.)): 26.1 µg/mL (≈ 57.4 µM); MIC ([15]; Staphylococcus aureus, KY8953, pH 8, read-out: Minimum Inhibitory Concentration (M.I.C.)): > 416 µg/mL
COC1COC(OC2C(N)CC(N)C(OC3OC(CN)CC(O)C3N)C2O)C(N)C1N (centres unmarked) [sulfate of XK-88-5] | – | – | – | – | – | – | – | – | – | – | – | – | – | – | – | – | – | – | insoluble | poorly soluble | solubility in water (Solubility): very soluble
COC1COC(OC2C(N)CC(N)C(OC3OC(CN)CC(O)C3N)C2O)C(N)C1N (centres unmarked) [XK-88-5] | 0.66 (≈ 1.46 µM) | 0.04 (≈ 0.0888 µM) | 2.7 (≈ 5.99 µM) | 0.17 (≈ 0.377 µM) | 1.31 (≈ 2.91 µM) | 0.09 (≈ 0.2 µM) | 0.66 (≈ 1.46 µM) | complete cross resistance does not always occur | 0.07 (≈ 0.155 µM) | strong antibacterial activity | strong antibacterial activity | 0.14 (≈ 0.311 µM) | > 41.6 | 0.33 (≈ 0.732 µM) | 20.8 (≈ 46.2 µM) | < 0.05 | < 0.02 | 0.04 (≈ 0.0888 µM) | – | – | MIC ([1]; BMHNO.1, Pseudomonas aeruginosa BMH No. 1, agar dilution, pH 8.0, read-out: Minimum Inhibitory Concentration (M.I.C.)): 8.3 µg/mL (≈ 18.4 µM); MIC ([2]; ATCC10541, Streptococcus faecalis ATCC 10541, agar dilution, pH 8.0, read-out: Minimum Inhibitory Concentration (M.I.C.)): 10.5 µg/mL (≈ 23.3 µM); MIC ([3]; ATCC6897, Proteus vulgaris ATCC 6897, agar dilution, pH 8.0, read-out: Minimum Inhibitory Concentration (M.I.C.)): 0.53 µg/mL (≈ 1.18 µM); MIC ([7]; KY8942, Staphylococcus aureus KY 8942 (resistant to Kanamycin, Paromomycin, Streptomycin, Gentamicin and Nebramycin), agar dilution, pH 8.0, read-out: Minimum Inhibitory Concentration (M.I.C.)): 0.66 µg/mL (≈ 1.46 µM); MIC ([10]; Bacillus subtilis No. 10703, agar dilution, pH 8.0, read-out: Minimum Inhibitory Concentration (M.I.C.)): 0.04 µg/mL (≈ 0.0888 µM); MIC (Escherichia coli ATCC 26; ATCC26, Escherichia coli ATCC 26, agar dilution, pH 8.0, read-out: Minimum Inhibitory Concentration (M.I.C.)): 0.08 µg/mL (≈ 0.178 µM); MIC ([15]; KY8953, Staphylococcus aureus KY 8953 (resistant to Streptomycin, Kanamycin, Paromycin, Neomycin, Tetracycline, Erythromycin), agar dilution, pH 8.0, read-out: Minimum Inhibitory Concentration (M.I.C.)): 0.17 µg/mL (≈ 0.377 µM)
NCC1CC(O)C(N)C(OC2C(N)CC(N)C(O)C2O)O1 (centres unmarked) [sulfate of XK-88-2] | – | – | – | – | – | – | – | – | – | – | – | – | – | – | – | – | – | – | insoluble | poorly soluble | solubility in water (Solubility): very soluble

From US3939043A, “Antibiotics designated XK-88 series and process for production thereof” (Abbott Laboratories, priority 1973, dated 1976)
